Test results: US20080119530A1, “Method for treatment and prevention of ultraviolet light induced skin pathologies” (priority 2006, published 2008)

Legend:
[1] = test system: skin; test: TUNEL analysis of apoptotic basal cells in UV-exposed skin; design: species or system mouse; settings: 24 h after UV, in vivo
Experimental: Microscopy. Hematoxylin and eosin staining was performed on paraffin-embedded sections following standard protocols. Following antigen retrieval, paraffin-embedded sections were incubated with antibodies to keratin 1, keratin 6, filaggrin (all from Covance, Princeton, N.J.), or […] (R&D Systems, Minneapolis, Minn.), Alexa Fluor 488-conjugated secondary antibody (Molecular Probes), and 4′,6-diamidino-2-phenylindole (DAPI; Vector Laboratories, Burlingame, Calif.). Apoptotic cells were identified using terminal deoxynucleotidyl transferase-mediated dUTP nick end labeling (TUNEL; Promega, Madison, Wis.).
Therefore, the effect of inhibition of Erbb2 on apoptotic cell death was examined in vivo by TUNEL. The percentage of TUNEL-positive basal cells peaked at 18% in vehicle-treated skin at 24 h after UV.
It has been discovered that Erbb2 modulates the expression of genes important in both proliferation and apoptosis following UV exposure in vivo (Example 9). Accordingly, the influence of Erbb2 on both apoptosis and cell proliferation was assessed in order to determine the mechanisms of Erbb2's effect on hyperplasia in the skin after UV irradiation. Erbb2 suppresses UV-induced apoptosis in vitro, although the effect was slight (32). […]

[2] = test system: keratin 5, loricrin; test: Differentiation markers in UV-exposed skin; type: in vivo, mouse; settings: inhibition prior to UV irradiation
[3] = test system: primary keratinocytes; test: BrdU incorporation (DNA synthesis) in cultured primary keratinocytes; type: cell-based, mouse
Source text: Cell culture. […] Keratinocytes were transfected with Erbb2-targeted siRNA (32), Stealth RNAi Negative Control LO GC (Invitrogen, Carlsbad, Calif.), Cy3-conjugated Label IT RNAi Delivery Control (Mirus, Madison, Wis.) or sham transfection with TransIT-siQUEST Transfection Reagent (Mirus, Madison, Wis.). Plasmids with Cdc25a (Hassepass et al. 2003a) and EGFP (enhanced green fluorescent protein) cDNA were cotransfected with Lipofectamine Transfection Reagent (Invitrogen, Carlsbad, Calif.). Transfection efficiency was quantified by determining the proportion of the cells that incorporated the fluorescent Cy3-conjugated siRNA or GFP one day post-transfection. […]
Cell cycle. […] For in vitro analysis, keratinocytes were resuspended, fixed in 70% ethanol, resuspended in Vindelov's solution (3.5 mM Tris base, pH 7.6, 10 mM NaCl, 10 μg/ml Ribonuclease A, 75 μg/ml propidium iodide, 1.01l/ml IPEGAL), and analyzed on a FACSCalibur flow cytometer (Becton Dickinson, Franklin Lakes, N.J.). Cell cycle distributions were determined using ModFit LT 3.1 software (Verity Software House, Topsham, Me.). […]
Proliferation and apoptosis assays. Proliferation, survival and apoptosis were quantified in three replicate experiments. BrdU uptake was measured by a chemiluminescenit BrdU Cell Proliferation ELISA (Roche, Germany). […] MUH fluorescence from wells lacking cells was subtracted from all samples. […]

[4] = test system: primary keratinocytes; test: Cell cycle distribution (DNA content, flow cytometry) in cultured keratinocytes; type: cell-based, mouse
Source text: Cell culture. […] Keratinocytes were transfected with Erbb2-targeted siRNA (32), Stealth RNAi Negative Control LO GC (Invitrogen, Carlsbad, Calif.), Cy3-conjugated Label IT RNAi Delivery Control (Mirus, Madison, Wis.) or sham transfection with TransIT-siQUEST Transfection Reagent (Mirus, Madison, Wis.). Plasmids with Cdc25a (Hassepass et al. 2003a) and EGFP (enhanced green fluorescent protein) cDNA were cotransfected with Lipofectamine Transfection Reagent (Invitrogen, Carlsbad, Calif.). Transfection efficiency was quantified by determining the proportion of the cells that incorporated the fluorescent Cy3-conjugated siRNA or GFP one day post-transfection. Keratinocytes homozygous for the Erbb2 loxP mutation were infected with Cre recombinase-expressing or empty adenoviral vectors in polybrene (Sigma).
Cell cycle. For in vivo analysis of cell cycle distribution, sections from paraffin embedded blocks were dewaxed with xylene, rehydrated and digested in PBS containing 0.5% pepsin (Sigma, St. Louis, Mo.). The nuclei were isolated by filtration and suspended in Vindelov's solution reagent (3.5 mM tris base, pH 7.6, 10 mM NaCl, […] Ribonuclease A, 75 μg/ml PI, 1.01l/ml IPEGAL) (56). For in vitro analysis, keratinocytes were resuspended, fixed in 70% ethanol, resuspended in Vindelov's solution (3.5 mM Tris base, pH 7.6, 10 mM NaCl, 10 μg/ml Ribonuclease A, 75 μg/ml propidium iodide, 1.01l/ml IPEGAL), and analyzed on a FACSCalibur flow cytometer (Becton Dickinson, Franklin Lakes, N.J.). Cell cycle distributions were determined using ModFit LT 3.1 software (Verity Software House, Topsham, Me.). […]
To further investigate Erbb2's effects on cell cycle progression after UV irradiation, DNA synthesis was examined after UV irradiation of cultured primary keratinocytes lacking Erbb2 activity. […] An even more striking effect was detected after UV irradiation. […] The influence of Erbb2 activation on S-phase progression was determined using both pharmacologic and genetic models to interfere with Erbb2 signaling. […]

[5] = test system: EGFR; test: UV-induced phosphorylation of EGFR; type: cell-based, mouse
Source text: For some experiments, the epidermis was separated from the skin by the heat shock method before homogenization. Keratinocytes were lysed in the same buffer. Membranes were immunoblotted with antibodies recognizing Erbb2, phospho-Erbb2 (Tyr^1248), EGFR, phospho-EGFR (Tyr^992), phospho-EGFR (Tyr^1173), phosphotyrosine, and Tall (Calbiochem, San Diego, Calif.). Binding of horseradish peroxidase-conjugated secondary antibodies (Cell Signaling, Beverly, Mass.) was visualized using chemiluminescent reagents (Pierce, Rockford, Ill.) and autoradiography. Densitometry was performed using IDScan software (Scanalytics, Fairfax, Va.).
Several methods were developed to regulate Erbb2 expression and activity both in vitro and in vivo.

## COc1cc(/C=C(\C#N)C(N)=O)cc(CSc2nc3ccccc3s2)c1O [AG825]
[1]
  apoptotic cell death (TUNEL-positive basal cells): did not increase
[2]
  localization or expression of early (keratin 5) or late (loricrin) markers of differentiation: did not alter
[3]; by 12 h after UV irradiation
  BrdU incorporation: reduced to nearly zero
[3]; sham-irradiated keratinocytes
  BrdU incorporation: significantly reduced
[4]; after UV exposure
  time at which S-phase arrest began: 18 h
[4]; after sham UV
  S-phase arrest: caused S-phase arrest
[4]; inhibition prior to UV exposure
  increase in the percentage of cells in S-phase: 10%
[5]
  EGFR phosphorylation at Tyr1173 after UV: did not block
  UV-induced phosphorylation of EGFR-Tyr992: blocked
